This passage reports RP-LC retention time results from the METLIN SMRT retention time set (Domingo-Almenara et al. 2019).

Structures are written as SMILES.

This series can be described thus: gradient 5% acetonitrile 3 min, to 50% in 2 min, to 85% in 15 min, held 3 min, 100 µL/min. The settings on record: column: Zorbax Extend-C18 2.1 x 50 mm; eluents: water / acetonitrile, 0.1% formic acid. In short, it runs like this: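 In both positive and negative ionization mode, a quadrupole time-of-flight mass spectrometer coupled to HPLC analyzed pure standards run in mixtures of ~100 molecules. The Zorbax Extend-C18 column (2.1 × 50 mm, 1.8 μm) was operated at 100 μL/min with water and acetonitrile, each containing 0.1% formic acid. The dead volume was 40 μL and the dwell volume 900 μL. Retention time came from adduct peaks that were computationally picked and individually inspected by hand.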
As for `O=C(Cn1cccc1-c1nnc(-c2ccccc2)o1)N1CCN(c2ccc(F)cc2)CC1`, the RP-LC retention time amounted to 996 s. The result for `Cc1cccc(-c2noc(Cn3ccn(-c4ccc(Cl)cc4)c(=O)c3=O)n2)c1` reads 929 s. The result for `Cc1nnc(C2CCCN(C(=O)CCc3c(C)noc3C)C2)s1` (stereo not given) reads 606 s; that for `O=C(NCC(c1ccc2c(c1)OCO2)N1CCN(c2ccc(F)cc2)CC1)C1CC1` (stereo not given), 682 s.

Consider `Cc1noc(C2(NC(=O)C3CCC3)CCCCC2)n1`, for which the RP-LC retention time is 745 s. The result for `CCn1c(CCNC(=O)c2ccc(OC)cc2)nc2cccnc21` reads 607 s; that for `CCOC(=O)Cc1nnc(-c2cc(OC)cc(OC)c2)o1`, 836 s; that for `CCC(=O)N1CCc2cc(-c3ccc(C(=O)N4CCC(C(N)=O)CC4)cc3)ccc21`, 667 s.

Take `Cc1cc(S(=O)(=O)N2CC(c3nc(-c4ncccn4)no3)C2)c(Cl)cc1Cl`: the RP-LC retention time was determined as 834 s. The result for `O=C(NCc1ccc(F)cc1Cl)c1cn2ccccc2n1` reads 708 s; that for `O=C(NCc1ccccc1Br)c1ccc(-c2cncnc2)nc1`, 748 s. As to `O=C(Nc1ccccc1C(F)(F)F)NC1CCN(c2ccc(F)cc2)C1=O` (stereo not given), the RP-LC retention time was determined as 850 s. For the compound `Cn1c(=O)n(C)c2cc(N3CCCCC3)c(NC(=O)c3ccco3)cc21`, the RP-LC retention time came out at 872 s. The result for `COc1ccc(-c2cc(N3CCC(NC(=O)c4ccc5c(c4)OCO5)C3)n[nH]2)cc1` (stereo not given) reads 690 s; that for `Cc1ccc(-n2nnnc2CN2CCN(S(=O)(=O)N(C)C)CC2)cc1`, 756 s; that for `COc1ccccc1-c1noc(C2CCCN2C(=O)Nc2cccc(C#N)c2)n1` (stereo not given), 823 s. In turn, `CCOc1nc2ccccc2nc1N1CCCC(C(=O)Nc2c(Cl)cccc2Cl)C1` (stereo not given) yielded an RP-LC retention time of 1290 s. The result for `CCOc1ccccc1NC(=O)c1c(O)c2cccnc2n(-c2cccc(F)c2)c1=O` reads 1320 s; that for `COc1ccc(C(=O)N2CCc3nc(-c4ccc(Cl)cc4)ncc3C2)cc1F`, 1050 s; that for `COc1ccccc1-c1noc2ncnc(N3CCN(c4ccccn4)CC3)c12`, 646 s.

For the compound `CC(=O)c1ccc(NC(=O)CSc2ncc(-c3ccc(C)c(C)c3)o2)cc1`, the RP-LC retention time worked out at 970 s. `Cc1cc(N2CCN(C(=O)Cc3ccccc3Br)CC2)nc2nncn12`: the RP-LC retention time was determined as 622 s.

With `CCOC(=O)C1=C(CN2CCC(c3ccc(C)cc3)C2)NC(=O)NC1c1cccc(OC)c1OC` (stereo not given), the RP-LC retention time was determined as 713 s. Compound `COc1cccc(N2CCN(Cc3nc(-c4ccc(N5CCCC(C)C5)nc4)no3)CC2)c1` (stereo not given) showed an RP-LC retention time of 882 s. The result for `CC(C)C(NC(=O)c1ccco1)c1nc(-c2ccc3c(c2)ncn3C2CCCC2)no1` (stereo not given) reads 741 s; that for `O=C(NC(NC(=O)c1ccccc1)c1ccccc1)c1ccccc1`, 765 s. The compound `Cc1ccc(CC(=O)Nc2cc(-c3ccc(C)s3)no2)cc1` registered an RP-LC retention time of 1050 s. Under `CCN(CC)c1ccc(NC(=O)Cn2cnc3c(sc4nc(-c5ccccc5)ccc43)c2=O)c(C)c1` stands 723 s; under `Cc1ccc2c(Nc3ccccc3F)c(C(=O)N3CCCC3)cnc2n1`, 555 s. Under `Cc1ccc2c(c1)C1CC(C)(O2)N(c2cccc(C(=O)N3CCCC3)c2)C(=O)N1` (stereo not given) stands 754 s; under `CNC(=O)[C@@H]1CN(C(=O)c2ccc(Cl)s2)C[C@H]1c1nc(COC)no1`, 698 s. Turning to `CC1(C(=O)NCc2cccc(Cl)c2)Oc2cccnc2NC1=O` (stereo not given), the RP-LC retention time was determined as 723 s. `Cc1noc(CNC(=O)C2CCN(C(=O)c3ccc(S(=O)(=O)N(C)C)cc3)CC2)n1` yielded an RP-LC retention time of 618 s. The result for `Cc1ccc(-c2noc(Cn3ccn(-c4ccccc4)c(=O)c3=O)n2)cc1` reads 844 s; that for `CCOC(=O)c1[nH]c(C)c(CCC(=O)N2CCC(C(=O)N3CCCC3)CC2)c1C`, 687 s. With `COc1ccc(-c2nsc(C(=O)NCc3cccs3)c2N)cc1`, the RP-LC retention time was 866 s. The compound `COc1ccc(NC(=O)C2CCN(c3nnc4ccc(Cl)cn34)CC2)c(OC)c1` returned an RP-LC retention time of 723 s. `O=C(NCCn1ncccc1=O)NCc1ccccc1` gave an RP-LC retention time of 578 s.

On to `Cc1noc(C)c1CC(=O)N1CCCC(c2nnc3n2CCN(C(=O)C2CC2)C3)C1` (stereo not given), for which the RP-LC retention time came out at 596 s. The result for `O=S(=O)(NCc1ccco1)c1ccc(Cl)c(-c2nnc(-c3ccccc3)o2)c1` reads 980 s; that for `Cc1cc(=O)n(CCc2ccccc2)c(N2CCSCC2)n1`, 897 s. The compound `COc1ccc(-c2csc3c(=O)n(CCOc4ccccc4)cnc23)cc1` gave an RP-LC retention time of 1060 s. Under `CCN(CC)S(=O)(=O)c1cccc(-c2nnc(-c3ccccc3OC)o2)c1` stands 950 s.

Compound `COCCNC(=O)Cn1c(CO)cnc1SCC(=O)Nc1ccc2c(c1)OCCO2` gave an RP-LC retention time of 554 s. Compound `O=C(NCc1ccccc1)C1CCCN(C(=O)C2Sc3ccccc3NC2=O)C1` (stereo not given) registered an RP-LC retention time of 746 s. `COc1nn(C)cc1C(=O)Nc1nc(-c2cc(Cl)sc2Cl)cs1` gave an RP-LC retention time of 1210 s.

For `COc1ccc(CNC(=O)C2(C)CCCN(S(=O)(=O)c3cccc(C)c3)C2)cc1` (stereo not given), the RP-LC retention time came out at 935 s.

With `CC(C)CCNC(=O)c1c(OCC2CC2)cc(=O)n2c1CCCCC2`, the RP-LC retention time stood at 774 s.

For `CC1=C(c2ccc(F)cc2)S(=O)(=O)N=C1N1CCCN(C(=O)CC(C)C)CC1`, the RP-LC retention time was 814 s. The result for `CCNC(=O)CC1=C2CCCCC2N(C(C)C)C1=O` (stereo not given) reads 671 s; that for `CN(C)CCNC(=O)Cc1cccn1-c1ccc(F)cc1`, 598 s. The compound `Cc1ccc2c(c1)N(C(=O)Cn1c(C(C)C)nc3c(c1=O)CCN(Cc1ccccc1)C3)CCO2` had an RP-LC retention time of 787 s. Consider `O=C(Cn1cc(-c2ccc(F)cc2)oc1=O)N1CCN(c2cccc(Cl)c2)CC1`, for which the RP-LC retention time came to 972 s.

With `CC(C)Cn1nc2n(c1=O)CCN(S(=O)(=O)c1ccc(C(C)(C)C)cc1)CC2`, the RP-LC retention time was determined as 631 s.

Regarding `CCNC(=O)C1CCN(S(=O)(=O)c2ccc(OCC)c(C)c2)CC1`, the RP-LC retention time was determined as 796 s. The result for `CC(C)n1nnc2cc(C(=O)N(C)CC(=O)Nc3ccc(Br)cc3F)ccc21` reads 803 s. Under `Cc1ccc2c(=O)c3c([nH]c2c1C)CCN(CC(=O)Nc1ccc(Cl)c(F)c1)C3` stands 662 s; under `CCn1nnc2cc(-c3noc(C(C)NS(=O)(=O)c4ccc(C)cc4)n3)ccc21` (stereo not given), 846 s; under `Cc1ccc(CN2CCC3(CC2)CC(O)(c2ccccn2)CCO3)nc1` (stereo not given), 539 s. Compound `Cc1cc(N2CCN(C)CC2)nc2ccc(NC(=O)Nc3ccc(F)cc3F)cc12` showed an RP-LC retention time of 594 s. The result for `CCOC(=O)CNC(=O)c1cn(CC)nc1S(=O)(=O)N1CCN(c2ccccc2OCC)CC1` reads 962 s; that for `CCn1ccc2sc(C)c(C(=O)NCc3cccc(Cl)c3)c2c1=O`, 926 s.

As to `O=C(CC(SCCO)c1ccc([N+](=O)[O-])cc1)c1ccco1` (stereo not given), the RP-LC retention time turned out to be 715 s. Under `CNC(=O)c1cc(C)n(C)n1` stands 835 s; under `O=C(NCCCc1ccccc1)C1CCN(c2ncnc3c2oc2ccccc23)CC1`, 976 s; under `Cn1cnc(S(=O)(=O)N2CC(n3cc(C(=O)NCC4CC4)nn3)C2)c1`, 622 s. As to `COc1ccc(-n2nc(C(=O)N3CCN(c4ccccn4)CC3)c(=O)n(C)c2=O)cc1`, the RP-LC retention time was found to be 623 s. With `CCOc1ccc(C2Cn3nnc(-c4nc(-c5ccc(C)c(C)c5)no4)c3CO2)cc1` (stereo not given), the RP-LC retention time amounted to 1290 s. Under `Cc1cc(C(=O)NC(C)CCc2ccccc2)n(-c2ccccc2)n1` (stereo not given) stands 942 s. The result for `Cc1ccc(N2CC(c3noc(-c4cc(F)ccc4F)n3)CC2=O)cc1` (stereo not given) reads 1000 s. The compound `Cc1nc(C)c(C(=O)N2CCc3cc(-c4csc(C5CC5)n4)ccc32)s1` had an RP-LC retention time of 1020 s. For `CNC(=O)c1ccc2c(c1)CCCN2S(=O)(=O)c1ccccc1`, the RP-LC retention time was 769 s. Under `CN(C1CCCCC1)S(=O)(=O)N1CCCC(C(=O)NCc2ccc3c(c2)OCO3)C1` (stereo not given) stands 954 s. The result for `Cc1cccc(CNC2=NCCNC23CCN(S(=O)(=O)c2c(C)cc(C)cc2C)CC3)c1` reads 846 s. Under `CC1CCN(S(=O)(=O)c2cccn(CC#N)c2=O)CC1` stands 749 s.

As to `Cc1occc1-c1nnc2sc(COc3ccc(Br)cc3)nn12`, the RP-LC retention time is 1040 s. Under `CC(C)n1nc(CNC(=O)C2CCN(S(=O)(=O)c3ccccc3)CC2)c2ccccc21` stands 918 s; under `Cc1ccc(CNC(=O)Nc2ccc(-c3nc(-c4ccccc4)co3)cc2)cc1`, 1100 s.

For the compound `O=C(Cc1csc2nc(-c3cccc(Br)c3)cn12)N1CCc2ccccc21`, the RP-LC retention time came to 1040 s. The result for `Cc1ccc(NC(=O)C2CCCN(c3cc(=O)n(C)c(=O)n3C)C2)nc1` (stereo not given) reads 597 s.
